US5840684A, “Glycopeptide antibiotic derivatives” (Eli Lilly and Company, priority 1995, dated 1998)
In brackets after ≈: the same amount, converted by molar mass.

What was measured:
Stapylococcus aureus = assay: mouse protection, experimentally-induced infection; format: in vivo; details: mice infected with Stapylococcus aureus, two doses
Entercoccus faecium 180 = assay: broth micro-dilution MIC; format: cell-based; details: Entercoccus faecium 180
Method: (§1) The formula I compounds have in vitro and in vivo activity against Gram-positive pathogenic bacteria. The MIC's were determined using a standard broth micro-dilution assay.

Entercoccus faecium 2041 = assay: broth micro-dilution MIC; format: cell-based; details: Entercoccus faecium 2041
Method: as §1

[1] = test system: Enterococcus gallinarum 245; assay: broth micro-dilution MIC; format: cell-based; details: Enterococcus gallinarum 245
Method: as §1

[2] = test system: Staphylococcus epidermidis 270; assay: broth micro-dilution MIC; format: cell-based
Method: as §1

Streptococcus pyogenes = assay: mouse protection, experimentally-induced infection; format: in vivo; details: mice infected with Streptococcus pyogenes, two doses
Streptococcus pneumoniae = assay: mouse protection, experimentally-induced infection; format: in vivo; details: mice infected with Streptococcus pneumoniae, two doses
[3] = test system: Entercoccus faecium 180-1; assay: broth micro-dilution MIC; format: cell-based
Method: (§2) The MIC's were determined using a standard broth micro-dilution assay.

[4] = test system: Staphylococcus aureus 491; assay: broth micro-dilution MIC; format: cell-based
Method: as §2

[5] = test system: Staphylococcus aureus SA1199A; assay: broth micro-dilution MIC; format: cell-based
Method: as §2

[6] = test system: Streptococcus pyogenes C203; assay: broth micro-dilution MIC; format: cell-based
Method: as §2

[7] = test system: Staphylococcus aureus X400; assay: broth micro-dilution MIC; format: cell-based
Method: as §2

Entercoccus faecium 276 = assay: broth micro-dilution MIC; format: cell-based
Method: as §2

[8] = test system: Staphylococcus aureus X778; assay: broth micro-dilution MIC; format: cell-based
Method: as §2

[9] = test system: Staphylococcus aureus 489; assay: broth micro-dilution MIC; format: cell-based
Method: as §2

[10] = test system: vancomycin-susceptible enterococci; assay: broth micro-dilution, mean geometric MIC; format: cell-based, Enterococcus faecium and Enterococcus faecalis; details: enterococci, 24-hour incubation
[11] = test system: vancomycin-resistant enterococci; assay: broth micro-dilution, mean geometric MIC; format: cell-based, Enterococcus faecium and Enterococcus faecalis; details: enterococci, 24-hour incubation
Pediococcus acidilacti = assay: agar dilution MIC, lactic acid bacteria; format: cell-based; details: Pediococcus acidilacti (mean of 10), brain-heart infusion agar
[12] = test system: Staphylococcus haemolyticus 415; assay: broth micro-dilution MIC; format: cell-based
Method: as §1

[13] = test system: Streptococcus pneumoniae P1; assay: broth micro-dilution MIC; format: cell-based
Method: as §1

[14] = test system: Staphylococcus haemolyticus 105; assay: broth micro-dilution MIC; format: cell-based
Method: as §1

Leuconostoc citreum = assay: agar dilution MIC, lactic acid bacteria; format: cell-based; details: brain-heart infusion agar
[15] = test system: Staphylococcus aureus SA1199; assay: broth micro-dilution MIC; format: cell-based
Method: as §2

[16] = test system: Staphylococcus aureus 446; assay: broth micro-dilution MIC; format: cell-based
Method: as §2

[17] = test system: Staphylococcus aureus 447; assay: broth micro-dilution MIC; format: cell-based
Method: as §2

[18] = test system: Staphylococcus aureus S13E; format: cell-based
Method: as §2

[19] = test system: Staphylococcus aureus SA1199B; format: cell-based
Method: as §2

[20] = test system: Leuconostoc mesenteroides; assay: agar dilution MIC, lactic acid bacteria; format: cell-based; details: Leuconostoc mesenteroides (mean of 4), brain-heart infusion agar
[21] = test system: Leuconostoc pseudomesenteroides; assay: agar dilution MIC, lactic acid bacteria; format: cell-based; details: brain-heart infusion agar
[22] = test system: Haemophilus influenzae RD; assay: broth micro-dilution MIC; format: cell-based; details: Haemophilus influenzae RD
Method: as §1

Structure (SMILES) | ED50 (Stapylococcus aureus) [mg/kg/2] | MIC (Entercoccus faecium 180) [mg/L] | MIC (Entercoccus faecium 2041) [mg/L] | MIC [1] [mg/L] | MIC [2] [mg/L] | ED50 (Streptococcus pyogenes) [mg/kg/2] | ED50 (Streptococcus pneumoniae) | MIC [3] [mg/L] | MIC [5] [mg/L] | MIC [6] [mg/L] | MIC (Entercoccus faecium 276) [mg/L] | MIC [8] [mg/L] | MIC [9] | mean geometric MIC, Vancomycin Sensitive Strains [10] [mg/L] | mean geometric MIC, Vancomycin Resistant Strains [11] [mg/L] | MIC [12] [mg/L] | MIC [13] | MIC [14] [mg/L] | MIC [15] [mg/L] | MIC [17] [mg/L] | further results
CCCCCc1ccc(-c2ccc(CNC3(C)CC(OC4C(Oc5c6cc7cc5Oc5ccc(cc5Cl)C(OC5CC(C)(N)C(O)C(C)O5)C5NC(=O)C(NC(=O)C7NC(=O)C(CC(N)=O)NC(=O)C(NC(=O)C(CC(C)C)NC)C(O)c7ccc(c(Cl)c7)O6)c6ccc(O)c(c6)-c6c(O)cc(O)cc6C(C(=O)O)NC5=O)OC(CO)C(O)C4O)OC(C)C3O)cc2)cc1 (centres unmarked) [Compound 22] | 0.049 | 1 (≈ 0.547 µM) | 2 (≈ 1.09 µM) | 1 (≈ 0.547 µM) | 4 (≈ 2.19 µM) | > 0.5 | > .05 mg/kg/2 | ≤ 0.06 | 4 (≈ 2.19 µM) | ≤ 0.06 | 4 (≈ 2.19 µM) | 8 (≈ 4.37 µM) | 8 mg/L (≈ 4.37 µM) | 1.5 | 1.0 |  |  |  |  |  | MIC [4]: 8 mg/L (≈ 4.37 µM); MIC [7]: 8 mg/L (≈ 4.37 µM)
CNC(CC(C)C)C(=O)NC1C(=O)NC(CC(N)=O)C(=O)NC2C(=O)NC3C(=O)NC(C(=O)NC(C(=O)O)c4cc(O)cc(O)c4-c4cc3ccc4O)C(OC3CC(C)(N)C(O)C(C)O3)c3ccc(c(Cl)c3)Oc3cc2cc(c3OC2OC(CO)C(O)C(O)C2OC2CC(C)(NCc3ccc(OCc4ccccc4)c(OC)c3)C(O)C(C)O2)Oc2ccc(cc2Cl)C1O (centres unmarked) [Compound 52] | 0.052 | 2 (≈ 1.1 µM) | 0.5 (≈ 0.275 µM) | 1 (≈ 0.55 µM) | 0.5 (≈ 0.275 µM) | 0.046 | 0.074 mg/kg/2 | ≤ 0.06 | ≤ 0.06 | ≤ 0.06 | 0.125 (≈ 0.0687 µM) | 0.5 (≈ 0.275 µM) | 0.5 mg/L (≈ 0.275 µM) | 0.11 | 0.59 | 1 (≈ 0.55 µM) | ≤ 0.06 mg/L | 0.5 (≈ 0.275 µM) | 2 (≈ 1.1 µM) | ≤ 0.06 | MIC (Pediococcus acidilacti): 55 mg/L (≈ 30.2 µM); MIC (Leuconostoc citreum): > 128 mg/L; MIC [16]: ≤ 0.06 mg/L; MIC [7]: ≤ 0.06 mg/L; MIC [18]: 0.5 mg/L (≈ 0.275 µM); MIC [19]: 2 mg/L (≈ 1.1 µM); MIC [20]: 76 mg/L (≈ 41.8 µM)
CNC(CC(C)C)C(=O)NC1C(=O)NC(CC(N)=O)C(=O)NC2C(=O)NC3C(=O)NC(C(=O)NC(C(=O)O)c4cc(O)cc(O)c4-c4cc3ccc4O)C(OC3CC(C)(N)C(O)C(C)O3)c3ccc(c(Cl)c3)Oc3cc2cc(c3OC2OC(CO)C(O)C(O)C2OC2CC(C)(NCc3ccc(OCc4ccccc4)c(OCc4ccccc4)c3)C(O)C(C)O2)Oc2ccc(cc2Cl)C1O (centres unmarked) [Compound 53] | 0.077 | 1 (≈ 0.528 µM) | 1 (≈ 0.528 µM) | 2 (≈ 1.06 µM) | 2 (≈ 1.06 µM) | 0.16 | 0.071 mg/kg/2 | 2 (≈ 1.06 µM) |  | ≤ 0.06 | 8 (≈ 4.22 µM) | 2 (≈ 1.06 µM) |  | 0.25 | 0.35 | 2 (≈ 1.06 µM) | ≤ 0.06 mg/L | 2 (≈ 1.06 µM) | 2 (≈ 1.06 µM) | 4 (≈ 2.11 µM) | MIC [4]: 2 mg/L (≈ 1.06 µM); MIC [16]: 2 mg/L (≈ 1.06 µM); MIC [18]: 2 mg/L (≈ 1.06 µM); MIC [19]: 2 mg/L (≈ 1.06 µM)
CNC(CC(C)C)C(=O)NC1C(=O)NC(CC(N)=O)C(=O)NC2C(=O)NC3C(=O)NC(C(=O)NC(C(=O)O)c4cc(O)cc(O)c4-c4cc3ccc4O)C(OC3CC(C)(N)C(O)C(C)O3)c3ccc(c(Cl)c3)Oc3cc2cc(c3OC2OC(CO)C(O)C(O)C2OC2CC(C)(NCc3ccc(Oc4ccc([N+](=O)[O-])cc4)cc3)C(O)C(C)O2)Oc2ccc(cc2Cl)C1O (centres unmarked) [Compound 57] | 0.041 | 0.5 (≈ 0.275 µM) | ≤ 0.06 | 2 (≈ 1.1 µM) | 0.5 (≈ 0.275 µM) | 0.054 | 0.046 mg/kg/2 | ≤ 0.06 | ≤ 0.06 | ≤ 0.06 | 0.5 (≈ 0.275 µM) | ≤ 0.06 | 0.5 mg/L (≈ 0.275 µM) | 0.041 | 0.35 | 1 (≈ 0.55 µM) | ≤ 0.06 mg/L | 8 (≈ 4.4 µM) | ≤ 0.06 | 0.5 (≈ 0.275 µM) | MIC [18]: ≤ 0.06 mg/L
CNC(CC(C)C)C(=O)NC1C(=O)NC(CC(N)=O)C(=O)NC2C(=O)NC3C(=O)NC(C(=O)NC(C(=O)O)c4cc(O)cc(O)c4-c4cc3ccc4O)C(OC3CC(C)(N)C(O)C(C)O3)c3ccc(c(Cl)c3)Oc3cc2cc(c3OC2OC(CO)C(O)C(O)C2OC2CC(C)(NCc3cccc4c3OCO4)C(O)C(C)O2)Oc2ccc(cc2Cl)C1O (centres unmarked) [Compound 58] |  | 8 (≈ 4.63 µM) | 0.5 (≈ 0.29 µM) | 0.4 (≈ 0.232 µM) | 4 (≈ 2.32 µM) |  |  |  | ≤ 0.06 | ≤ 0.06 | 0.5 (≈ 0.29 µM) | ≤ 0.06 | ≤ 0.06 mg/L | 0.76 | 5.7 | 8 (≈ 4.63 µM) | ≤ 0.06 mg/L | 4 (≈ 2.32 µM) | ≤ 0.06 | 1 (≈ 0.579 µM) | MIC [21]: 128 mg/L (≈ 74.1 µM); MIC (Pediococcus acidilacti): 55 mg/L (≈ 31.9 µM); MIC (Leuconostoc citreum): 128 mg/L (≈ 74.1 µM); MIC [7]: ≤ 0.06 mg/L; MIC [18]: ≤ 0.06 mg/L
CNC(CC(C)C)C(=O)NC1C(=O)NC(CC(N)=O)C(=O)NC2C(=O)NC3C(=O)NC(C(=O)NC(C(=O)O)c4cc(O)cc(O)c4-c4cc3ccc4O)C(OC3CC(C)(N)C(O)C(C)O3)c3ccc(c(Cl)c3)Oc3cc2cc(c3OC2OC(CO)C(O)C(O)C2OC2CC(C)(NCc3ccc(-c4ccc(Cl)cc4)cc3)C(O)C(C)O2)Oc2ccc(cc2Cl)C1O (centres unmarked) [Compound 229, 4-[4-chlorophenyl]benzyl-A82846B] |  | ≤ 0.06 | ≤ 0.06 | 2 (≈ 1.12 µM) | 0.5 (≈ 0.279 µM) | 0.058 | 0.078 mg/kg/2 | ≤ 0.06 | ≤ 0.06 | ≤ 0.06 | 0.25 (≈ 0.139 µM) | 1 (≈ 0.558 µM) | 1 mg/L (≈ 0.558 µM) | 0.024 | 0.50 | 2 (≈ 1.12 µM) | ≤ 0.06 mg/L | 1 (≈ 0.558 µM) | 1 (≈ 0.558 µM) | 2 (≈ 1.12 µM) | MIC [22]: 2 mg/L (≈ 1.12 µM); MIC [4]: 0.5 mg/L (≈ 0.279 µM); MIC [16]: 1 mg/L (≈ 0.558 µM); MIC [7]: 1 mg/L (≈ 0.558 µM); MIC [18]: 1 mg/L (≈ 0.558 µM); MIC [19]: 1 mg/L (≈ 0.558 µM)
CN[C@@H](CC(C)C)C(=O)N[C@H]1C(=O)N[C@H](CC(N)=O)C(=O)N[C@H]2C(=O)N[C@H]3C(=O)N[C@@H](C(=O)NC(C(=O)O)c4cc(O)cc(O)c4-c4cc3ccc4O)[C@@H](O[C@H]3C[C@](C)(N)[C@H](O)[C@@H](C)O3)c3ccc(cc3)Oc3cc2cc(c3O[C@H]2O[C@@H](CO)[C@@H](O)[C@H](O)[C@@H]2O[C@H]2C[C@](C)(N)[C@H](O)[C@@H](C)O2)Oc2ccc(cc2)[C@@H]1O (some centres unmarked) [Compound A82846C, A82846C, reference compound] | 1.3 | 16 (≈ 10.5 µM) | 0.5 (≈ 0.328 µM) | 0.5 (≈ 0.328 µM) |  | 1.5 |  |  |  |  | 0.5 (≈ 0.328 µM) | 0.5 (≈ 0.328 µM) | ≤ .06 mg/L |  | 353 | 2 (≈ 1.31 µM) | ≤ .06 mg/L | 1 (≈ 0.656 µM) |  | 0.5 (≈ 0.328 µM) | MIC [4]: 1 mg/L (≈ 0.656 µM); MIC [16]: 0.5 mg/L (≈ 0.328 µM); MIC [19]: ≤ .06 mg/L
